What was measured:
[1] = test system: C. jejuni strain C338; assay: morphology of C. jejuni after incubation with phage peptides (Gram stain); assay type: cell-based, Campylobacter jejuni; details: normal morphology is spiral-shaped
Experimental: The morphology has changed to thread-shaped. • B. Strain C338 incubated with unselected phage library showing the normal spiral-shaped morphology • C.
(§1) The number of viable bacteria in the 96 well plates was determined by performing colony counts on the diluted inoculum and plating onto blood agar plates. Colony counts on blood agar plates were also used to determine the initial inoculum of bacteria used in the assay. A Gram Stain Kit was used to check the morphology of C. jejuni after incubation with the phage peptides.

[2] = test system: C. jejuni strain C338; assay: microdilution susceptibility test, inhibition of growth of C. jejuni in vitro; assay type: cell-based, Campylobacter jejuni; details: for % inhibition of growth: C. jejuni strain C338, phage-displayed peptide
Experimental: Representative affinity-selected phage peptides were tested for their ability to inhibit the growth of C. jejuni strains in vitro. Each phage clone was amplified by E. coli infection and twice purified by PEG precipitation and resuspended in TBS buffer (pH 7.5). Phage concentrations were calculated as […] using the ultraviolet (UV) absorbance measurements on a spectrophotometer (Smith & Scott, 1993). […] In brief: each of the C. jejuni strains was resuspended to an OD595 of 0.2 in Nutrient Broth and then diluted to 10^4-10^5 CFU/mL in Nutrient Broth containing Campylobacter growth supplement. […] A microaerophilic environment was provided by GasPak E2 Campy Pouches (BD Biosciences). After 24-48 h at 37° C. without shaking, the optical densities of the bacterial cultures were measured at OD595 nm in a plate reader (Victor2, Perkin Elmer).
as §1

Sequence	morphology of C. jejuni after incubation with phage-displayed peptide [1]	% inhibition of growth [2]	other results
VPESIHKASLVCYRF (f88-4/15-mer peptide phage-display library) [BP3/5]	coccoid shaped	–	–
GRFLIRVTSSPLGPD (f88-4/15-mer peptide phage-display library) [CP3/1]	thread-shaped	96.7%	inhibition of growth of C. jejuni ([2]; initial bacterial inoculum 2.8×10^4 CFU/mL): 97%; inhibition of growth of C. jejuni ([2]; initial bacterial inoculum 2.8×10^4 CFU/mL as printed (second value for CP3/1)): 89%
TGSGLYLHQMVYLYQ (f88-4/15-mer peptide phage-display library) [CP3/2]	–	92%	inhibition of growth of C. jejuni ([2]; bacterial inoculum 1.6×10^5 CFU/mL): 87%
FLIDSPLASIGPTSM (f88-4/15-mer peptide phage-display library) [CP3/3]	–	99.3%	–
TCNLSDYTLPRARVL (f88-4/15-mer peptide phage-display library) [BT3/4]	–	60%	inhibition of growth of C. jejuni in vitro (in words) ([2]; bacterial concentration of 1×10^4 CFU/mL): inhibited the growth

— patent US20100190719A1, “PEPTIDES AS ANTIMICROBIAL AGENTS TOWARDS CAMPYLOBACTER SPP” (priority 2007, published 2010)
